In PMC5667507, “A novel ^18F-labelled high affinity agent for PET imaging of the translocator protein” (Chemical Science, 2015):

Experiments:
TSPO [1] = target: TSPO; design: method as in PMID 20045646; details: printed in Fig. 2; cited from earlier work
TSPO [2] = target: T1, TSPO (Rattus norvegicus, UniProt P16257); assay: Competition binding assay, displacement of [3H]-PK11195 in rat brain homogenates; details: displacement of [3H]-PK11195, rat brain homogenates; mean ± SD of three independent experiments
T1 construct: Whole brains from male Sprague-Dawley rats (200–300 g) were obtained; from tissue; host or cells: whole brain of male Sprague-Dawley rats, washed membrane homogenate
From the text: Competition Binding Assays
(6 pictures or pasted objects on this page, not shown here)

[3] = target: T2, human serum albumin (HSA) (Homo sapiens, UniProt P02768); assay: Human serum albumin (HSA) chromatography for %PPB; format: in vitro ADME; details: human serum albumin (HSA) coated HPLC column, read-out: %PPB (percentage of plasma protein binding) (converted)
T2 construct: purchased ChromTech HSA 5 µm (3.0 × 50 mm) column

[4] = Stability testing in phosphate buffered saline at 37 °C (HPLC); format: physicochemical; details: for Purity of Compound (stability testing): 1:1 PBS/acetonitrile, 37 °C
Method: The key physicochemical parameters of AB5186 6, permeability (P m), membrane partition coefficient (K m) and percentage of plasma protein binding (%PPB) were determined by high-performance liquid chromatography (HPLC) methods (Table 1).[23] […] As AB5186 6 contains a fluoroalkyl group, a potential alkylating agent, the stability of this compound was examined in simulated physiological conditions. […] The combination of a relatively strong C–F bond and the presence of bulky di-ortho-substituents impart a good level of stability.
3-(Fluoromethyl)-4-phenylquinoline-2-N-diethylcarboxamide (6) (2 mg, […]) was dissolved in a 1:1 mixture of […] phosphate buffered saline and acetonitrile (2 mL) and incubated at 37 ° C. 5 µL of the solution was injected onto the HPLC system (conditions described as below in section 7) at various time points (0, 1, 2, 4, 6 and 24 h). The purity of the compound at these time points was detemined by measuring the area under the peaks of the resultant UV

[5] = used for HSA column calibration; ref literature (SI ref 3); cited from earlier work

T2 sequence (P02768 25-609): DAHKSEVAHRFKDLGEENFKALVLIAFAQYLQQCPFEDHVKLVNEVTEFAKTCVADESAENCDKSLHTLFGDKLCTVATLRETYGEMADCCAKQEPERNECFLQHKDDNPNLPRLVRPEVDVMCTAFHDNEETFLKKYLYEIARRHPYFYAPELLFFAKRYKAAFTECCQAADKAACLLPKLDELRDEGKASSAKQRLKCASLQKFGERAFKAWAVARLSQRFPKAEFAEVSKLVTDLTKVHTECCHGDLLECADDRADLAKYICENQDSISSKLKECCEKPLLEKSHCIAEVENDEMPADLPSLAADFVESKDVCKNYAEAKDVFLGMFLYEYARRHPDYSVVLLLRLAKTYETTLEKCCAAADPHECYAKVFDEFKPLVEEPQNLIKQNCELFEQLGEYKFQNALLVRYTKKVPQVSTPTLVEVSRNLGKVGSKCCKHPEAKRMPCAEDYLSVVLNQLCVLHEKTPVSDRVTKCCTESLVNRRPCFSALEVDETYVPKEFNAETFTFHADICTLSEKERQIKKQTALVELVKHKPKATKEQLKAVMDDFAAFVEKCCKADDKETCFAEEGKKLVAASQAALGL

Compound: 3-iodomethylquinoline-2-carboxamide [compound 4]
- Ki (TSPO [1]): 12 nM

Compound: 4-(2-iodophenyl)quinoline-2-carboxamide [compound 5]
- Ki (TSPO [1]): 5.01 nM

Compound: CCN(CC)C(=O)c1nc2ccccc2c(-c2ccccc2)c1CF [AB5186 6, 3-(Fluoromethyl)-4-phenylquinoline-2-N-diethylcarboxamide]
- Ki (TSPO [2]): 2.8 ± 0.8 nM
- fraction unbound at 0.5 mg/mL [3]: 0.103
- Purity of Compound (stability testing) ([4]; time 0 h): 98.81%
- Purity of Compound (stability testing) ([4]; time 1 h): 98.75%
- Purity of Compound (stability testing) ([4]; time 2 h): 98.76%
- Purity of Compound (stability testing) ([4]; time 4 h): 98.80%
- Purity of Compound (stability testing) ([4]; time 6 h): 98.78%
- Purity of Compound (stability testing) ([4]; time 24 h): 91.94%
- decomposition ([4]; phosphate buffered saline pH 7.4, 37 °C, after 6 hours): 0.03%

Compound: CCC(C)N(C)C(=O)c1cc2ccccc2c(-c2ccccc2Cl)n1 (stereo not drawn) [PK11195 1, reference compound]
- fraction unbound at 0.5 mg/mL [3]: 0.085

Compound: O=C1CN=C(c2ccccn2)c2cc(Br)ccc2N1 [bromazepam]
- %PPB (literature value of calibration standard) [5]: 60.0%

Compound: CCCC1O[C@@H]2C[C@H]3[C@@H]4CCC5=CC(=O)C=C[C@]5(C)[C@H]4[C@@H](O)C[C@]3(C)[C@]2(C(=O)CO)O1 (stereo partly drawn) [budesonide]
- %PPB (literature value of calibration standard) [5]: 88.0%

Compound: CNC(=C[N+](=O)[O-])NCCSCc1csc(CN(C)C)n1 [nizatidine]
- %PPB (literature value of calibration standard) [5]: 35.0%
